Laboratory results: publication PMC6270601, “Dimeric Labdane Diterpenes: Synthesis and Antiproliferative Effects” (Molecules, 2013)

Columns and labels:
Format in all cases: cell-based, human
AGS cells = assay: Antiproliferative assay (MTT reduction), AGS gastric adenocarcinoma cells; settings: for IC50: Homo sapiens, 72 h, AGS gastric adenocarcinoma, 3 days treatment, MTT reduction, mean ± SD, >100 µM considered inactive; for antiproliferative activity against AGS (in words): up to 100 µM
Protocol: The compounds 1–20 were assessed for antiproliferative effect towards human lung fibroblasts (MRC-5) and the following human tumor cell lines: gastric adenocarcinoma (AGS), lung cancer cells (SK-MES-1), bladder carcinoma (J82) and promyelocytic leukemia (HL-60).
(§1) All human cell lines used in this work were purchased from the American Type Culture Collection (ATCC, Manasas, VA, USA). Normal lung MRC-5 fibroblasts (CCL-171), SK-MES-1 lung cancer cells (HTB-58) and J82 bladder carcinoma cells (HTB-1) were grown as monolayers in minimum essential Eagle medium (MEM) with Earles’s salts, 2 mM L-glutamine and 1.5 g/L sodium bicarbonate. Gastric adenocarcinoma AGS cells (CRL-1739) were grown as monolayers in Ham F-12 medium containing 1 mM L-glutamine and 1.5 g/L sodium bicarbonate. Promyelocytic leukemia HL-60 cells (CCL-240) were grown in suspension in RPM1 medium containing 1 mM sodium pyruvate and 2.0 g/L sodium bicarbonate. All media were supplemented with 10% heat-inactivated FBS, 100 IU/mL penicillin and 100 µg/mL streptomycin. Cells were grown in a humidified incubator with 5% CO2 in air at 37 °C. For the antiproliferative assay, adherent cells were plated at a density of 5 × 10^4 cells/mL and HL-60 cells at 30 × 10^4 cells/mL. Cells were seeded in 96-well plates (100 µL/well). One day after seeding, cells were treated with medium containing the compounds at concentrations ranging from 0 up to 100 µM during 3 days. The compounds were dissolved in DMSO (1% final concentration) and complete medium. Untreated cells (medium containing 1% DMSO) were used as 100% viability controls. […] Each concentration was tested in sextuplicate and experiments were repeated 2 times. Cell viability was determined by means of the MTT reduction assay at the end of the incubation with the products. The results were transformed to percentage of controls and the IC50 values were graphically obtained from the dose-response curves.

[1] = test system: SK-MES-1 lung cancer cells; assay: Antiproliferative assay (MTT reduction), SK-MES-1 lung cancer cells; settings: for IC50: Homo sapiens, 72 h, SK-MES-1 lung cancer cells, 3 days treatment, MTT reduction, mean ± SD, >100 µM considered inactive; for antiproliferative activity against SK-MES-1 (in words): up to 100 µM
Protocol: as §1, with “Normal lung MRC-5 fibroblasts (CCL-171), SK-MES-1 lung cancer cells (HTB-58) and J82 bladder carcinoma cells (HTB-1) were grown as monolayers in minimum essential Eagle medium (MEM) with Earles’s salts, 2 mM L-glutamine and 1.5 g/L sodium bicarbonate. Gastric adenocarcinoma AGS cells (CRL-1739) were grown as monolayers in Ham F-12 medium containing 1 mM L-glutamine and 1.5 g/L sodium bicarbonate.” left out, “products.” for “products. The results were transformed to percentage of controls and the IC50 values were graphically obtained from the dose-response curves.”

[2] = test system: J82 bladder carcinoma cells; assay: Antiproliferative assay (MTT reduction), J82 bladder carcinoma cells; settings: for IC50: Homo sapiens, 72 h, J82 bladder carcinoma, 3 days treatment, MTT reduction, mean ± SD, >100 µM considered inactive; for antiproliferative activity against J82 (in words): up to 100 µM
Protocol: as §1, with “Normal lung MRC-5 fibroblasts (CCL-171), SK-MES-1 lung cancer cells (HTB-58) and J82 bladder carcinoma cells (HTB-1) were grown as monolayers in minimum essential Eagle medium (MEM) with Earles’s salts, 2 mM L-glutamine and 1.5 g/L sodium bicarbonate. Gastric adenocarcinoma AGS cells (CRL-1739) were grown as monolayers in Ham F-12 medium containing 1 mM L-glutamine and 1.5 g/L sodium bicarbonate.” left out, “products.” for “products. The results were transformed to percentage of controls and the IC50 values were graphically obtained from the dose-response curves.”

MRC-5 normal fibroblasts = assay: Antiproliferative assay (MTT reduction), MRC-5 normal lung fibroblasts; settings: for IC50: Homo sapiens, MRC5, 72 h, MRC-5 normal fibroblasts, 3 days treatment, MTT reduction, mean ± SD, >100 µM considered inactive; for antiproliferative activity against MRC-5 (in words): up to 100 µM
Protocol: as §1, with “Normal lung MRC-5 fibroblasts (CCL-171), SK-MES-1 lung cancer cells (HTB-58) and J82 bladder carcinoma cells (HTB-1) were grown as monolayers in minimum essential Eagle medium (MEM) with Earles’s salts, 2 mM L-glutamine and 1.5 g/L sodium bicarbonate. Gastric adenocarcinoma AGS cells (CRL-1739) were grown as monolayers in Ham F-12 medium containing 1 mM L-glutamine and 1.5 g/L sodium bicarbonate.” left out, “products.” for “products. The results were transformed to percentage of controls and the IC50 values were graphically obtained from the dose-response curves.”

HL-60 cells = assay: Antiproliferative assay (MTT reduction), HL-60 promyelocytic leukemia cells; settings: for IC50: Homo sapiens, 72 h, HL-60 promyelocytic leukemia, 3 days treatment, MTT reduction, mean ± SD, >100 µM considered inactive; for antiproliferative activity against HL-60 (in words): up to 100 µM
Protocol: as §1, with “Normal lung MRC-5 fibroblasts (CCL-171), SK-MES-1 lung cancer cells (HTB-58) and J82 bladder carcinoma cells (HTB-1) were grown as monolayers in minimum essential Eagle medium (MEM) with Earles’s salts, 2 mM L-glutamine and 1.5 g/L sodium bicarbonate. Gastric adenocarcinoma AGS cells (CRL-1739) were grown as monolayers in Ham F-12 medium containing 1 mM L-glutamine and 1.5 g/L sodium bicarbonate.” left out, “products.” for “products. The results were transformed to percentage of controls and the IC50 values were graphically obtained from the dose-response curves.”

Compound: C=C1CCC2[C@](C)(CCC[C@]2(C)C(=O)OC)[C@H]1CC[C@@H](C)CCn1cc(CCO)nn1 (some centres unmarked) [Compound 5, 15-(4-(2-Hydroxyethyl)-1H-1,2,3-triazol-1-yl)-imbricatolic acid methyl ester]
- IC50 (AGS cells): 54.8 ± 3.3 µM
- IC50 [1]: 57.2 ± 3.4 µM
- IC50 [2]: 56.2 ± 3.9 µM
- IC50 (MRC-5 normal fibroblasts): 75.8 ± 5.3 µM
- IC50 (HL-60 cells): 48.9 ± 4.5 µM

Compound: C=C1CCC2[C@](C)(CCC[C@]2(C)C(=O)OC)[C@H]1CC[C@@H](C)CCO (some centres unmarked) [Compound 1, 15-Hydroxyimbricatolic acid methyl ester]
- IC50 (AGS cells): 38.5 ± 1.6 µM
- IC50 [1]: 59.7 ± 2.4 µM
- IC50 [2]: 63.7 ± 2.6 µM
- IC50 (MRC-5 normal fibroblasts): 77.7 ± 4 µM
- IC50 (HL-60 cells): 47.5 ± 3.9 µM

Compound: C=C1CCC2[C@](C)(CCC[C@]2(C)C(=O)OC)[C@H]1CC[C@@H](C)CCOC(=O)c1ccccc1C(=O)OCC[C@H](C)CC[C@H]1C(=C)CCC2[C@]1(C)CCC[C@]2(C)C(=O)OC (some centres unmarked) [Compound 14]
- IC50 (AGS cells): 51.7 ± 2.8 µM
- IC50 [1]: > 100 µM
- IC50 [2]: > 100 µM
- IC50 (MRC-5 normal fibroblasts): 76.3 ± 5.8 µM
- IC50 (HL-60 cells): 55.6 ± 3.9 µM

Compound: C=C1CCC2[C@](C)(CCC[C@]2(C)C(=O)OC)[C@H]1CC[C@@H](C)CCn1cc(CCOC(=O)C[C@H](C)CC[C@H]2C(=C)CCC3[C@]2(C)CCC[C@]3(C)C(=O)OC)nn1 (some centres unmarked) [Compound 18]
- IC50 (AGS cells): > 100 µM
- IC50 [1]: > 100 µM
- IC50 [2]: > 100 µM
- IC50 (MRC-5 normal fibroblasts): > 100 µM
- IC50 (HL-60 cells): > 100 µM

Compound: C=C1CCC2[C@](C)(CCC[C@]2(C)C(=O)OC)[C@H]1CC[C@@H](C)CCOCCCCOCC[C@H](C)CC[C@H]1C(=C)CCC2[C@]1(C)CCC[C@]2(C)C(=O)OC (some centres unmarked) [Compound 8]
- IC50 (AGS cells): 70.3 ± 6.3 µM
- IC50 [1]: > 100 µM
- IC50 [2]: > 100 µM
- IC50 (MRC-5 normal fibroblasts): > 100 µM
- IC50 (HL-60 cells): 57.8 ± 4.1 µM

Compound: C=C1CCC2[C@](C)(CCC[C@]2(C)C(=O)OC)[C@H]1CC[C@@H](C)CCn1cc(CO)nn1 (some centres unmarked) [Compound 4, 15-(4-(Hydroxymethyl)-1H-1,2,3-triazol-1-yl)-imbricatolic acid methyl ester]
- IC50 (AGS cells): 41.5 ± 2.1 µM
- IC50 [1]: 67.7 ± 3.1 µM
- IC50 [2]: 60.7 ± 4.6 µM
- IC50 (MRC-5 normal fibroblasts): 77.4 ± 3.9 µM
- IC50 (HL-60 cells): > 100 µM

Compound: C=C1CCC2[C@](C)(CCC[C@]2(C)C(=O)OC)[C@H]1CC[C@@H](C)CCOCCCCCOCC[C@H](C)CC[C@H]1C(=C)CCC2[C@]1(C)CCC[C@]2(C)C(=O)OC (some centres unmarked) [Compound 9]
- IC50 (AGS cells): 17.8 ± 1.3 µM
- IC50 [1]: 67.5 ± 6.9 µM
- IC50 [2]: > 100 µM
- IC50 (MRC-5 normal fibroblasts): 68.1 ± 3.4 µM
- IC50 (HL-60 cells): 32.6 ± 2.3 µM

Compound: C=C1CCC2[C@](C)(CCC[C@]2(C)C(=O)O)[C@H]1CC[C@@H](C)CC(=O)OCc1cn(CC[C@H](C)CC[C@H]2C(=C)CCC3[C@]2(C)CCC[C@]3(C)C(=O)OC)nn1 (some centres unmarked) [Compound 15]
- IC50 (AGS cells): 39.4 ± 2.4 µM
- IC50 [1]: 56 ± 4.5 µM
- IC50 [2]: 84.7 ± 6.8 µM
- IC50 (MRC-5 normal fibroblasts): > 100 µM
- IC50 (HL-60 cells): 44.1 ± 4.1 µM

Compound: C=C1CCC2[C@](C)(CCC[C@]2(C)C(=O)OC)[C@H]1CC[C@@H](C)CCn1cc(COC(=O)C[C@H](C)CC[C@H]2C(=C)CCC3[C@]2(C)CCC[C@]3(C)C(=O)OC)nn1 (some centres unmarked) [Compound 16]
- IC50 (AGS cells): > 100 µM
- IC50 [1]: > 100 µM
- IC50 [2]: > 100 µM
- IC50 (MRC-5 normal fibroblasts): > 100 µM
- IC50 (HL-60 cells): > 100 µM

Compound: C=C1CCC2[C@](C)(CCC[C@]2(C)C(=O)O)[C@H]1CC[C@@H](C)CC(=O)OCCc1cn(CC[C@H](C)CC[C@H]2C(=C)CCC3[C@]2(C)CCC[C@]3(C)C(=O)OC)nn1 (some centres unmarked) [Compound 17]
- IC50 (AGS cells): 23.4 ± 1.4 µM
- IC50 [1]: 67.5 ± 4.9 µM
- IC50 [2]: 34.6 ± 2.5 µM
- IC50 (MRC-5 normal fibroblasts): 79.6 ± 5.1 µM
- IC50 (HL-60 cells): 23.2 ± 3.1 µM

Compound: C=C1CCC2[C@](C)(CCC[C@]2(C)C(=O)OC)[C@H]1CC[C@@H](C)CCN=[N+]=[N-] (some centres unmarked) [Compound 3, 15-Azidoimbricatolic acid methyl ester]
- IC50 (AGS cells): 73.8 ± 5.2 µM
- IC50 [1]: 67.6 ± 3.4 µM
- IC50 [2]: > 100 µM
- IC50 (MRC-5 normal fibroblasts): 91.8 ± 6.4 µM
- IC50 (HL-60 cells): 22.3 ± 3.1 µM

Compound: C=C1CCC2[C@](C)(CCC[C@]2(C)C(=O)OC)[C@H]1CC[C@@H](C)CCOC(=O)C[C@H](C)CC[C@H]1C(=C)CCC2[C@]1(C)CCC[C@]2(C)C(=O)OC (some centres unmarked) [Compound 12]
- antiproliferative activity against AGS (in words) (AGS cells): devoid of activity
- IC50 (AGS cells): > 100 µM
- IC50 [1]: 38.5 ± 2.8 µM
- antiproliferative activity against SK-MES-1 (in words) [1]: showed effect
- IC50 [2]: 61.4 ± 3.1 µM
- antiproliferative activity against J82 (in words) [2]: showed effect
- IC50 (MRC-5 normal fibroblasts): > 100 µM
- antiproliferative activity against MRC-5 (in words) (MRC-5 normal fibroblasts): devoid of activity
- antiproliferative activity against HL-60 (in words) (HL-60 cells): devoid of activity
- IC50 (HL-60 cells): > 100 µM

Compound: C=C1CCC2[C@](C)(CCC[C@]2(C)C(=O)OC)[C@H]1CC[C@@H](C)CCOCCCCCCCCCOCC[C@H](C)CC[C@H]1C(=C)CCC2[C@]1(C)CCC[C@]2(C)C(=O)OC (some centres unmarked) [Compound 10]
- IC50 (AGS cells): > 100 µM
- IC50 [1]: 67.9 ± 5.4 µM
- IC50 [2]: > 100 µM
- IC50 (MRC-5 normal fibroblasts): > 100 µM
- IC50 (HL-60 cells): > 100 µM

Compound: C=C1CCC2[C@](C)(CCC[C@]2(C)C(=O)OC)[C@H]1CC[C@@H](C)CCOC(=O)CCC(=O)OCC[C@H](C)CC[C@H]1C(=C)CCC2[C@]1(C)CCC[C@]2(C)C(=O)OC (some centres unmarked) [Compound 13]
- IC50 (AGS cells): 62.9 ± 3.9 µM
- IC50 [1]: 68.2 ± 4.5 µM
- IC50 [2]: 72.1 ± 4.3 µM
- IC50 (MRC-5 normal fibroblasts): 76.8 ± 5.4 µM
- IC50 (HL-60 cells): 60.8 ± 4.2 µM

Compound: C=C1CCC2[C@](C)(CCC[C@]2(C)C(=O)O)[C@H]1CC[C@@H](C)CC(=O)OCC[C@H](C)CC[C@H]1C(=C)CCC2[C@]1(C)CCC[C@]2(C)C(=O)OC (some centres unmarked) [Compound 11]
- antiproliferative activity against AGS (in words) (AGS cells): showed activity
- IC50 (AGS cells): 26.1 ± 2.2 µM
- IC50 [1]: > 100 µM
- antiproliferative activity against SK-MES-1 (in words) [1]: not against SK-MES-1 and J82 cells
- IC50 [2]: > 100 µM
- antiproliferative activity against J82 (in words) [2]: not against SK-MES-1 and J82 cells
- IC50 (MRC-5 normal fibroblasts): 71.2 ± 5.3 µM
- antiproliferative activity against MRC-5 (in words) (MRC-5 normal fibroblasts): showed activity
- antiproliferative activity against HL-60 (in words) (HL-60 cells): showed activity
- IC50 (HL-60 cells): 80.3 ± 5.9 µM

Compound: COc1cc([C@@H]2c3cc4c(cc3[C@@H](O[C@@H]3O[C@@H]5CO[C@@H](C)O[C@H]5[C@H](O)[C@H]3O)[C@H]3COC(=O)[C@H]23)OCO4)cc(OC)c1O [Etoposide, reference compound]
- IC50 (AGS cells): 0.58 ± 0.02 µM
